We go through 28 compounds from US7560591B2, “Benzamidine derivatives having anti-inflammatory and immunosuppressive activity” (Rotta Research Laboratorium S.p.A., priority 2001, dated 2009).

The structures appear in SMILES notation. Like-named read-outs stand apart in the source and are kept apart here.

Test [1] has as its system colitis induced by TNBS in rats. The test is described as follows: Colitis induced by TNBS in rats. It counts as in vivo, rat. The note with it: for Weight of the colon: 48 hours after TNBS; for Weight of the colon / Myeloperoxidase activity / iNOS activity / Macroscopic damage (MDS): mean ± SD; for Myeloperoxidase activity / iNOS activity: colon tissue; for Macroscopic damage (MDS): score 0-10. The source says:
The combined capability of some of the compounds of the invention to inhibit both iNOS and the synthesis of TNFα has led to their activity being checked in an experimental model of colitis caused by a chemical hapten, trinitrobenzene-sulphonic acid (TNBS), which can bind to the tissue proteins and stimulate cell-mediated immunity. The intrarectal administration of TNBS in association with ethanol causes acute inflammation characterised by extensive ulceration and necrosis.
A distal colitis was therefore induced in the rat by intrarectal instillation of TNBS (40 mg/kg) dissolved in 50% ethanol (0.5 ml/rat). The drugs were administered orally twice a day on days −2; −1; 0; +1 and the animals were killed 48 hours after the administration of TNBS.
The parameters examined were: total weight of the colon (g), macroscopic tissue damage “score”, measurement of the tissue myeloperoxidase (MPO) activity, which is a marker of the infiltration of the neutrophiles, and measurement of the iNOS activity (pmoles/g tissue/min.).
The macroscopic score (MDS) was taken on about 10 cm of colon in accordance with the following arbitrary scale:
The tissue MPO measurement was performed according to Velgara et al., JPET 1994. The measurement of the tissue nitrites was performed by applying the method described above for the chondrocytes to the supernatant fluid of the tissue homogenate.
Compound I-4, administered in doses of 5, 10 and 20 mg/kg, and compound I-11 were examined, by administering them orally, in comparison with sulphasalazine (250 mg/kg) and 5-aminosalicylic acid (5-ASA) (100 mg/kg), 2 drugs which are widely used in the treatment of ulcerative colitis.

The test system of test [2] is neutral proteases (metalloproteases). The test is described as follows: Inhibition of neutral proteases (metalloproteases) in supernatant of IL-1β-stimulated rabbit joint chondrocytes, azocoll substrate. Format: biochemical. The note with it: IL-1β 1 ng/ml, 48 hours, APMA-activated supernatant, read-out: MP (metalloproteases) IC50. The protocol: (§1) a) The activity in inhibiting the formation of NO, measured as NO2^− (nitrites), PGE2, and neutral protease, was investigated in vitro on culture broths of rabbit joint chondrocytes stimulated by cytokine IL-1β (1 ng/ml) for 48 hours. For the preparation of the chondrocytes, the method described by Berenbaum et al [FEBS Letters 340, 51-55 (1994)] was followed. Briefly, fragments of cartilage removed under sterile conditions from the heads of rabbit shoulder, hip and knee joints were chopped finely and digested at 37° C. by hyaluronidase, trypsin and collagenase solutions, giving rise, after filtration on sterile gauze and centrifuging at 600×g and suitable dilution with 10% DMEM-FCS, to a concentration of approximately 1×10^5 cells per well. The cells were kept in these conditions until confluence (about 15 days), the broth being changed every 3 days. At this point, the products under test, dissolved in the medium, were added to each test sample and, after 20 minutes, 350 μl IL-1β was added in order to have a final concentration of 1 ng/ml. The duration of the stimulation was 48 hours at 37° C. (incubation air-CO2 7%). Measurement of the nitrites, as described by Green et al. [Anal. Biochem. 126, 131-138 (1982)], and of the PGE2s by RIA measurement, was then performed on the cell supernatant fluid. The measurement of the neutral proteases was performed in the cell supernatant fluid containing the p-aminophenyl mercury acetate (APMA) activator with the use of azocoll as the substrate and with incubation at 37° C. for 17 h as described by Chavira et al. [Anal. Biochem. 136, 446-450 (1984)]. In order to evaluate the direct inhibitory effect of the compounds under test on the hydrolytic activity of the cell supernatant fluid, they were added to the supernatant fluid containing the proteases induced by IL-1β and already activated by AMPA.
(§2) The results obtained are shown in Table 3, in which the IC50, that is, the concentration (micromolar) of antagonist which can inhibit the formation of nitrites, PGE2s, and neutral proteases, respectively, by 50% relative to the control group, that is, to the cells stimulated with IL-1β but without the addition of antagonists, is given for some of the compounds of the invention already given by way of example in Table 2.

Test [3] relates to formation of NO, measured as NO2− (nitrites). The test is described as follows: Inhibition of NO (nitrite) formation in rabbit joint chondrocytes stimulated by IL-1β. Format: cell-based. The note with it: IL-1β 1 ng/ml, 48 hours, NO determined as nitrites. The method, then: as §1, §2
Another test has as its system formation of PGE2. The test is described as follows: Inhibition of PGE2 formation in rabbit joint chondrocytes stimulated by IL-1β (RIA). It counts as cell-based. The note with it: IL-1β 1 ng/ml, 48 hours. The protocol:
as §1, §2

Test [4] has as its system extravasation in the ears of mice. The test is described as follows: Extravasation (Evans Blu) induced by phlogogenic agents in the ears of mice. Format: in vivo. The method, then: b) Some of the compounds of the invention, such as compounds I-4, I-11 and I-31, were evaluated in vivo in a series of experimental extravasation models in which 5 μl of the preselected phlogogenic agent dissolved in physiological solution was injected intradermally into the ears of mice as described by Erdo et al., with slight modifications [Agents and Actions 39, 137-142 (1993)].
The products under test were administered orally 1 hour before the challenge and, 30 minutes before the challenge, the dye Evans Blu was injected intravenously in a dose of 100 mg/kg. The animals were killed at a time predetermined according to the test, 30 min.—2 hours after the challenge. The extravasation was evaluated by determining the quantity of dye present in the ear, extracted after homogenisation of the tissue in 2 ml of formamide and incubation at 50° C. for 2 hours. After centrifuging, the amount of dye was determined by measuring the absorption at 620 nm. The maximum % effect (% MPE) was calculated by the following formula:
[formula] in which EV is the mean absorption observed in the group of animals treated solely with the phlogogenic agent, ED is the group treated with the phlogogenic agent and the drug, and EB is the base value, that is, the value for the animals injected with physiological solution alone.
The phlogogenic agents used were:
Arachidonic acid (dissolved in EtOH); (1 mg/mouse; killed+30 min); histamine (3 nmoli/mouse; killed+30 min); PAF (30 pmoli/mouse; killed+60 min); Zymosan (10 μg/mouse; killed+120 min); bradykinin (0.6 nmoli/mouse; killed+30 min).

Where [5] appears, read: OS, mouse ear, PAF, read-out: ED50, extravasation induced by PAF.
The mark [6] stands for this setting: 250 mg/kg, non-statistically significant.

`Nc1ccc(O)c(C(=O)O)c1` [Compound 5-ASA, 5-aminosalicylic acid, reference compound]: in test [1] (100 mg/kg), the “activity on all of the parameters (in words)” value is “inactive”. Further, in test [1] (100 mg/kg orally twice a day), the “Weight of the colon” value is 2.4 ± 0.4 g, the Myeloperoxidase activity is listed as 7.9 ± 2.3 UMPO/g/min, the iNOS activity was determined as 167.3 ± 106.5 pmol/g/min and the “Macroscopic damage (MDS)” value came out at 6.9 ± 1.1.
Broadly, the IC50 is the midpoint of a concentration-inhibition curve. As to `CNC(=S)Nc1ccc(NC(C)=N)cc1` [Compound I-1], in test [2], the IC50 is 30 µM.
Take `CCCCNC(=S)Nc1ccc(NC(C)=N)cc1` [Compound I-3]: the IC50 stood at 190 µM in test [3], 13.3 µM in test [2] and 250 µM in the test on formation of PGE2.
For `CCCCCCNC(=S)Nc1ccc(NC(C)=N)cc1` [Compound I-5] the same measures were 10 µM, 3.3 µM and 10 µM.
For the compound `CC(=N)Nc1ccc(NC(=S)NCCC(C)C)cc1` [Compound I-7], the IC50 in test [3] came to 3.3 µM; in test [2] it was 13.3 µM; with formation of PGE2 it was 6.6 µM.
In turn, `CC(=N)Nc1ccc(NC(=S)NC2CCCCC2)cc1` [Compound I-11] registered an IC50 in test [3] of 110 µM. Also, the IC50 in test [2] was 30 µM. Further, the “activity in TNBS colitis (in words)” value in test [1] (20 mg/kg) is on record as “active”. For the same compound, in test [1] (20 mg/kg orally twice a day), the “Weight of the colon” value is on record as 2.2 ± 0.3 g, the Myeloperoxidase activity is recorded as 6.5 ± 1.8 UMPO/g/min, the iNOS activity amounted to 90.6 ± 45.6 pmol/g/min and the “Macroscopic damage (MDS)” value was 4.3 ± 0.9(*). This compound also showed an IC50 in the test on formation of PGE2 of 16.6 µM.
For `CCC(=N)Nc1ccc(NC(=S)NC2CCCCC2)cc1` [Compound I-12], the IC50 in test [2] stood at 100 µM; in the test with formation of PGE2 it was 13.3 µM.
On to `CC(=N)Nc1ccc(NC(=S)Nc2ccccc2)cc1` [Compound I-13], for which the IC50 in test [3] was 100 µM; in test [2] it was 6.6 µM; in the test on formation of PGE2, 10 µM.
The like results for `CC(=N)Nc1ccc(NC(=S)NCCc2ccccc2)cc1` [Compound I-14] were, in that order, 100 µM, 6.6 µM and 33 µM.
For `CC(=N)Nc1ccc(NC(=S)NCCCc2ccccc2)cc1` [Compound I-15] the same measures were 33 µM, 6.6 µM and 16.6 µM.
For `CC(=N)Nc1ccc(NC(=S)NCCc2ccc(F)cc2)cc1` [Compound I-16], the IC50 in test [3] amounted to 13.3 µM; in test [2] it was 6.6 µM; in the test on formation of PGE2, 26.6 µM.
For `CC(=N)Nc1ccc(NC(=S)NCCc2ccc(Cl)cc2)cc1` [Compound I-17], the IC50 (in test [3]; in test [2]; in the test with formation of PGE2) was 10 µM in each case.
Regarding `CC(=N)Nc1ccc(NC(=S)NCCc2c(F)cccc2F)cc1` [Compound I-18], the IC50 (in test [2]; in the test with formation of PGE2) was 6.6 µM in each case.
Consider `CC(=N)Nc1ccc(NC(=S)NCc2ccccn2)cc1` [Compound I-19], for which the IC50 in test [2] came out at 13.3 µM.
With `CC(=N)Nc1ccc(NC(=S)NCCc2ccccn2)cc1` [Compound I-20], the IC50 in test [3] was determined as 16.6 µM; in test [2], 6.6 µM; in the test with formation of PGE2, 16.6 µM.
In test [3], `CC(=N)Nc1ccc(NC(=S)Nc2ncc(C)s2)cc1` [Compound I-21] gave an IC50 of 66.6 µM.
With `CCCCCC(=O)Nc1ccc(NC(C)=N)cc1` [Compound I-23], in test [3], the IC50 was 100 µM.
With `CC(=N)Nc1ccc(NC(=O)C2CCCCC2)cc1` [Compound I-24], the 50% inhibitory concentration (IC50) (in test [3]; in the test with formation of PGE2) was 33.3 µM throughout.
In turn, `CC(=N)Nc1ccc(NC(=O)C23CC4CC(CC(C4)C2)C3)cc1` [Compound I-25] yielded an IC50 with formation of PGE2 of 16.6 µM.
With `CC(=N)Nc1ccc(NC(=O)Cc2c[nH]c3ccccc23)cc1` [Compound I-27], the midpoint of inhibition in test [3], the IC50, lay at 10 µM.
Regarding `CC(=N)Nc1ccc(NC(=O)c2cc3ccccc3n2C)cc1` [Compound I-28], the IC50 in the test on formation of PGE2 was determined as 100 µM.
Take `CC(=N)Nc1ccc(NC(=O)NC2CCCCC2)cc1` [Compound I-29]: the IC50 in test [3] is 25 µM; in test [2], 25 µM; in the test on formation of PGE2 it was 6.6 µM.
For `N=C(N)Nc1ccc(NC(=S)NC2CCCCC2)cc1` [Compound I-30, 1-guanidinophenyl-4-cyclohexyl Thiourea], the IC50 was determined as 6.6 µM in test [3], 13.3 µM in test [2] and 10 µM with formation of PGE2.
In the case of `N=C(Nc1ccc(NC(=S)NC2CCCCC2)cc1)N[N+](=O)[O-]` [Compound I-31], the figures for the IC50 (in test [3]; in test [2]; with formation of PGE2) were 46.6 µM, 6.6 µM and 30 µM, respectively. Also, in test [4] (OS, mouse ear, PAF), the “ED50, extravasation induced by PAF” value is listed as 10.8 mg/kg. Besides, the “ED50, extravasation induced by Zymosan” value in test [4] (OS, mouse ear, Zymosan) came to 10.5 mg/kg. Further, the “ED50, extravasation induced by AA (arachidonic acid)” value in test [4] (OS, mouse ear, arachidonic acid) is 30.5 mg/kg.
Compound `CC(=N)Nc1cccc(NC(=S)NC2CCCCC2)c1` [Compound I-32] had an IC50 with formation of PGE2 of 300 µM.
A word on the ED50: it is the dose at which the effect has come halfway, by size or by number of responders. With `CS(=O)(=O)Nc1ccc([N+](=O)[O-])cc1Oc1ccccc1` [Nimesulide, reference compound], the ED50 in test [4] (setting [5]) was above 40 mg/kg; in test [4] (OS, mouse ear, arachidonic acid, read-out: ED50, extravasation induced by AA (arachidonic acid)), 41 mg/kg. Moreover, the “times less active than Compound I-4” value in test [4] (antagonising AA) came out at 2 times.
On to `CN1C(C(=O)Nc2ccccn2)=C(O)c2ccccc2S1(=O)=O` [Piroxicam, reference compound], for which the ED50 in test [4] (setting [5]) is 21.2 mg/kg; in test [4] (OS, mouse ear, Zymosan, read-out: ED50, extravasation induced by Zymosan), 6.1 mg/kg.
With `O=C(O)c1cc(/N=N/c2ccc(S(=O)(=O)Nc3ccccn3)cc2)ccc1O` [Sulphasalazine, sulphasalazine, reference compound], in test [1] (250 mg/kg orally twice a day), the “Weight of the colon” value was 2.5 ± 0.3 g, the Myeloperoxidase activity came out at 7.5 ± 5.5 UMPO/g/min, the iNOS activity was 100.8 ± 86.8 pmol/g/min and the “Macroscopic damage (MDS)” value was found to be 6.0 ± 2.9. Moreover, in test [1] (setting [6]), the “effect on iNOS activity” value is “about 50%” and the “effect on macroscopic damage” value was “about 20%”.
